Compound in experiment [1]: O=[As]([O-])(O)O.[K+] [potassium arsenate]
Nature of the experiment: thermal stability z-score vs DMSO; higher = more thermally stabilized by treatment. The conditions noted are these: HeLa; arsenate concentration 1 mM. The method, then: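 Cellular thermal proteome profiling in HeLa cells treated with 1 mM arsenate for 1 h (DMSO pretreatment), heated to ten temperatures (37-66.3 °C). Soluble protein was quantified by TMT mass spectrometry relative to DMSO controls; the thermal stability score was transformed to a z-score; mean of n = 3 experiments.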

Compound in experiment [2]: NC(=O)CCCCC1CCSS1 [lipoamide]
The experiment is described as above. The conditions noted are these: HeLa, lipoamide concentration 100 µM. The method, then:
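Cellular thermal proteome profiling in HeLa cells. Cells were treated with 100 µM lipoamide for 1 h, with or without 1 mM arsenate for a further 1 h, then heated to ten temperatures (37-66.3 °C), and soluble protein was quantified by TMT mass spectrometry relative to 0.1% DMSO controls. The thermal stability score (sum of log2 fold changes minus the abundance score) was transformed to a z-score; mean of n = 3 experiments.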

Where [3] appears, read: arsenate co-treatment: 1 mM arsenate 1 h.
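Further: each temperature applied for 3 min, abundance score taken as mean log2 fold change at the two lowest temperatures, z-score obtained by mean subtraction and division by SD.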

Chain of UniProt P05549 (P05549 whole entry): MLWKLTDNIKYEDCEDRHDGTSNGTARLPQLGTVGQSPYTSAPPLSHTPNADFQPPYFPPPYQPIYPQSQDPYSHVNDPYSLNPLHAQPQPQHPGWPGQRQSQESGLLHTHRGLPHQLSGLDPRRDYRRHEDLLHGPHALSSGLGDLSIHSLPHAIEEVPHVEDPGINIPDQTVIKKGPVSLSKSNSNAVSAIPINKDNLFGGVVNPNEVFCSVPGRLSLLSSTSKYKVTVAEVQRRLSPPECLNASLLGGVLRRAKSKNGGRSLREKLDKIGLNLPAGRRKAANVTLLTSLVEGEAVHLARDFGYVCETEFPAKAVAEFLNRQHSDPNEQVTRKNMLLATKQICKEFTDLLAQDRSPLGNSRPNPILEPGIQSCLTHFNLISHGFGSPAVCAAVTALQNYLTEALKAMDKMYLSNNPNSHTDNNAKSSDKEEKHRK
Chain of UniProt Q9UNS1 (Q9UNS1 whole entry): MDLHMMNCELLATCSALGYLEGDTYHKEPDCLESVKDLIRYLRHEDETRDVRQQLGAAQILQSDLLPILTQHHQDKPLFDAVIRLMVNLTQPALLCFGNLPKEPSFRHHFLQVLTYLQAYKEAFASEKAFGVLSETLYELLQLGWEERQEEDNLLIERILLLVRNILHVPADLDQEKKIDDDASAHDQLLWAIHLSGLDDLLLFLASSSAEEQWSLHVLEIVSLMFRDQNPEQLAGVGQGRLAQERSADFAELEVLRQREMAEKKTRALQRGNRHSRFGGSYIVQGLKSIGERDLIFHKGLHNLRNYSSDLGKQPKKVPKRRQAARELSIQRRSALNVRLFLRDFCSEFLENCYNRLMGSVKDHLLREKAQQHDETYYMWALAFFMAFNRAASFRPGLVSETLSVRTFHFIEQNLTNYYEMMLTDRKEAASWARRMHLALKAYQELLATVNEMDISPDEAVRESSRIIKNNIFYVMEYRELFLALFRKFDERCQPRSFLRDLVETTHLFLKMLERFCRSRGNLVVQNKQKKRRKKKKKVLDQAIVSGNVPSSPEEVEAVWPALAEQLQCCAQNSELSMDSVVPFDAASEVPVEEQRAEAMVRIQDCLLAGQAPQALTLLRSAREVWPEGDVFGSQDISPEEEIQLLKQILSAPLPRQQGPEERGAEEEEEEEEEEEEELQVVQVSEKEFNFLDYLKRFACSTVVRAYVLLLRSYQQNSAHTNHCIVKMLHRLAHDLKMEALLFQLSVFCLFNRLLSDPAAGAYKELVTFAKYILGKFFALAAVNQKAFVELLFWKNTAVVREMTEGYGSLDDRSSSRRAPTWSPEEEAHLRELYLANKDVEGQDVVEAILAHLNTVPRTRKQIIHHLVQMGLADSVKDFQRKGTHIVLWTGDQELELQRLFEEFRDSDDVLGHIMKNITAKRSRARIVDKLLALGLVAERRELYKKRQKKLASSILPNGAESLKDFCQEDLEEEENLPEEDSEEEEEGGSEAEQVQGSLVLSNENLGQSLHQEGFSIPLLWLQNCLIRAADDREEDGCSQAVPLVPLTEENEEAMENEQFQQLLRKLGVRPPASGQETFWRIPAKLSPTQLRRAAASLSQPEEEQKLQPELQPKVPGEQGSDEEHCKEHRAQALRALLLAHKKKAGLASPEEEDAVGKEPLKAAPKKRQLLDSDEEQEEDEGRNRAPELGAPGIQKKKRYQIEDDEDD
Chain of UniProt Q5T1C6 (Q5T1C6 whole entry): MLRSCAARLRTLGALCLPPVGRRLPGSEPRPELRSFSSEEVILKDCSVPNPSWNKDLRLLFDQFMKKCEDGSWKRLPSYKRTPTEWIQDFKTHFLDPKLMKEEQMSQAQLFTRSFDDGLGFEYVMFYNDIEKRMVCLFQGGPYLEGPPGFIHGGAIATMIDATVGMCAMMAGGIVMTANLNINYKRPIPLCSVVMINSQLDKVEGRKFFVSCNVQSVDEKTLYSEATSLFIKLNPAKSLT
Chain of UniProt Q86W42 (Q86W42 whole entry): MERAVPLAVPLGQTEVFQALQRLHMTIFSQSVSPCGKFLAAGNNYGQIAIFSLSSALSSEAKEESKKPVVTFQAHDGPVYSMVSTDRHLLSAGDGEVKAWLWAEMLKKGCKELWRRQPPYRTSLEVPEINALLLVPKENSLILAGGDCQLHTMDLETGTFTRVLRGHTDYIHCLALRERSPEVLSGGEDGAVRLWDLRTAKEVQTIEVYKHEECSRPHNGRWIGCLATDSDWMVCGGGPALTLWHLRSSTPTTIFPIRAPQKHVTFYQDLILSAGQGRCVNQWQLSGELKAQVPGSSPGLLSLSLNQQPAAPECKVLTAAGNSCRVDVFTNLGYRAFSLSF
Chain of UniProt Q9Y2W1 (Q9Y2W1 whole entry): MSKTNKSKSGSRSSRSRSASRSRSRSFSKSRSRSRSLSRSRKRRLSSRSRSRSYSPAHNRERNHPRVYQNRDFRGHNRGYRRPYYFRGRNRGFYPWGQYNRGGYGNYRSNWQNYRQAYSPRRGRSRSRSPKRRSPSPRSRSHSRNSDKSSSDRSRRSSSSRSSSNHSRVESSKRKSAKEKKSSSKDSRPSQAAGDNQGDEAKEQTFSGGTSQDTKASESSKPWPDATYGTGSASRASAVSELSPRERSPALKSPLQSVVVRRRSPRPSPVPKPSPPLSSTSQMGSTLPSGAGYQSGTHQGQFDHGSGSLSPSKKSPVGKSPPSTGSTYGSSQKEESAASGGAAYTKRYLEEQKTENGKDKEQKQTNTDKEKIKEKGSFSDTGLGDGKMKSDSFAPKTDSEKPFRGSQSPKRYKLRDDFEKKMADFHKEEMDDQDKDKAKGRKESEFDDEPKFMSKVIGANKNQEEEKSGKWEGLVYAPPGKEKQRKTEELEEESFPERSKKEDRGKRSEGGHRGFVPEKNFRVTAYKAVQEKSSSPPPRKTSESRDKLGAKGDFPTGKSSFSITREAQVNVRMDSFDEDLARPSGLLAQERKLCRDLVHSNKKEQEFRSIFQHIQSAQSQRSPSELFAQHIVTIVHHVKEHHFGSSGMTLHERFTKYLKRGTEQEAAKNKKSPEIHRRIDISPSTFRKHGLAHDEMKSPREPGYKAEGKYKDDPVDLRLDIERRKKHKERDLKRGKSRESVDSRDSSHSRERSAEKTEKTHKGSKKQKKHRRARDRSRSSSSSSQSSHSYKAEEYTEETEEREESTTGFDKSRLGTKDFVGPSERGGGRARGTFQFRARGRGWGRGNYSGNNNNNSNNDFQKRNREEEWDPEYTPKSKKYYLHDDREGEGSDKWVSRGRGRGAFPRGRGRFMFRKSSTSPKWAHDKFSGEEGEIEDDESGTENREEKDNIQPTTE
Chain of UniProt Q01664 (Q01664 whole entry): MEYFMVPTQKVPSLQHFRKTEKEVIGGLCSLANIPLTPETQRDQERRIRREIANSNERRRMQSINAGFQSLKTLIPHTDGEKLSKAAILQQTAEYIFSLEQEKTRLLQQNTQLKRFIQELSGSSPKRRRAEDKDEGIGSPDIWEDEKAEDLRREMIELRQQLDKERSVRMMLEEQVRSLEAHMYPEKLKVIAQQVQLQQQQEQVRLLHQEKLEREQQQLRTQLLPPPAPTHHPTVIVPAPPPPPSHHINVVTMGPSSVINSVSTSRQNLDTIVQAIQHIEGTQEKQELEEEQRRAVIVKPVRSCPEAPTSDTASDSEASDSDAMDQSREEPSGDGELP
Chain of UniProt Q8WUY1 (Q8WUY1 whole entry): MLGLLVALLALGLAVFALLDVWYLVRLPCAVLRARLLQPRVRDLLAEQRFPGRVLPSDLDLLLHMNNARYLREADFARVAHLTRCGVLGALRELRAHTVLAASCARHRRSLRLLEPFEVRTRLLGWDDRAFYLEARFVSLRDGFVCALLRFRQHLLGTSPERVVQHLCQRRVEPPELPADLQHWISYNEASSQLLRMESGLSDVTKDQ
Chain of UniProt Q96FV9 (Q96FV9 whole entry): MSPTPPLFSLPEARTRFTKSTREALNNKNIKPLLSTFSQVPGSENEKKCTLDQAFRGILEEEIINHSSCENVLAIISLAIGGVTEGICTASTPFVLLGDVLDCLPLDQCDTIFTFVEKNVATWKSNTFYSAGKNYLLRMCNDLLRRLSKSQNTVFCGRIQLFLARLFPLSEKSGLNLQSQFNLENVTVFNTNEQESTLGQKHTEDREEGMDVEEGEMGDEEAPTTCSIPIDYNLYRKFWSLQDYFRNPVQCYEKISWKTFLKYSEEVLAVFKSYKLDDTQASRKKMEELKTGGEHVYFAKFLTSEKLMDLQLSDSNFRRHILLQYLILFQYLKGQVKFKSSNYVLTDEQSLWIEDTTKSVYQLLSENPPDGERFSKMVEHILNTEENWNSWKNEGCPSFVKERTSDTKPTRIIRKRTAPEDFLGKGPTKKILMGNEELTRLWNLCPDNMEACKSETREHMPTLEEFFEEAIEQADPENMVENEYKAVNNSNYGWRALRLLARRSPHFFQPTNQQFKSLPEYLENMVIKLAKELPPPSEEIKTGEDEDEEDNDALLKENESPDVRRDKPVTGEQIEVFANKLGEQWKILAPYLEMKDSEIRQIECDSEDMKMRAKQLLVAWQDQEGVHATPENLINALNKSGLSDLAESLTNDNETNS
Chain of UniProt Q96CG3 (Q96CG3 whole entry): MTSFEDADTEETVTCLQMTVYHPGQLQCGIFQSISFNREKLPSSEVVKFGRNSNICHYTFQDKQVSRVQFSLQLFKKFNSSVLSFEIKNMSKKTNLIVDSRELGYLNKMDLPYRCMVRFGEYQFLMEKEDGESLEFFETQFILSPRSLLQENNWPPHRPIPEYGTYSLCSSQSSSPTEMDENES
Chain of UniProt Q9BU02 (Q9BU02 whole entry): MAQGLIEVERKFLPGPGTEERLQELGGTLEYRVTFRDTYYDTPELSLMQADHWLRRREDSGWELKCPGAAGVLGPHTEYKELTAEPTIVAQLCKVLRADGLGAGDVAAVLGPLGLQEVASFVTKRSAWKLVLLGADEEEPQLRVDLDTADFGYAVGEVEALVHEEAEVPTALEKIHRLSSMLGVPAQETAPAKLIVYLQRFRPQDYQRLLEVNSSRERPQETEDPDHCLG
Chain of UniProt Q9Y5L4 (Q9Y5L4 whole entry): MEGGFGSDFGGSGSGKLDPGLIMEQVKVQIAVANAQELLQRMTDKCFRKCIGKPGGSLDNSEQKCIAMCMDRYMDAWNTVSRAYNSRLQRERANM

For the target TFAP2A (UniProt P05549), the thermal stability z-score in experiment [1] stood at 0.566; in experiment [2] (setting [3]), 0.831; in experiment [2] (arsenate co-treatment: none) it was 0.868.

TFAP4 (UniProt Q01664): the thermal stability z-score in experiment [1] stood at 1.02; in experiment [2] (setting [3]), 0.339; in experiment [2] (arsenate co-treatment: none), 0.809.

As to TFB1M (UniProt Q8WVM0), the thermal stability z-score in experiment [1] was 0.0871; in experiment [2] (setting [3]), -0.367; in experiment [2] (arsenate co-treatment: none) it was 0.233.

Regarding TFB2M (UniProt Q9H5Q4), the thermal stability z-score in experiment [1] is 0.215; in experiment [2] (setting [3]) it was -0.3; in experiment [2] (arsenate co-treatment: none), -0.261.

For TFCP2 (UniProt Q12800), the thermal stability z-score in experiment [1] is 0.147; in experiment [2] (setting [3]), 0.151; in experiment [2] (arsenate co-treatment: none), 0.69.

As for TFDP1 (UniProt Q14186), the results for the thermal stability z-score in experiment [1], in experiment [2] (setting [3]) and in experiment [2] (arsenate co-treatment: none) were -0.0388, -0.00506 and 0.0652, respectively.

On to TFG (UniProt Q92734), for which the thermal stability z-score in experiment [1] was 0.134; in experiment [2] (setting [3]), 0.607; in experiment [2] (arsenate co-treatment: none), 0.76.

On to TFIP11 (UniProt Q9UBB9), for which the thermal stability z-score in experiment [1] is -0.187; in experiment [2] (setting [3]), -0.0949; in experiment [2] (arsenate co-treatment: none), -0.0621.

As to TFRC (UniProt P02786), the thermal stability z-score turned out to be 0.144 in experiment [1], 0.193 in experiment [2] (setting [3]) and 0.202 in experiment [2] (arsenate co-treatment: none).

Regarding TGFB1 (UniProt P01137), the thermal stability z-score in experiment [1] was -0.306; in experiment [2] (setting [3]), -2.9; in experiment [2] (arsenate co-treatment: none), -3.34.

Regarding TGFBR1 (UniProt P36897), the thermal stability z-score in experiment [1] was -0.162; in experiment [2] (setting [3]), -0.829; in experiment [2] (arsenate co-treatment: none) it was 0.245.

TGFBRAP1 (UniProt Q8WUH2): the thermal stability z-score in experiment [1] is -0.0443; in experiment [2] (setting [3]), 0.0561; in experiment [2] (arsenate co-treatment: none), -0.0483.

As for TGIF1 (UniProt Q15583), the thermal stability z-score was -0.203 in experiment [1], -0.557 in experiment [2] (setting [3]) and -0.274 in experiment [2] (arsenate co-treatment: none).

With TGOLN2 (UniProt O43493), the thermal stability z-score in experiment [1] is -0.275; in experiment [2] (setting [3]), 0.152; in experiment [2] (arsenate co-treatment: none), 0.0237.

Consider TGS1 (UniProt Q96RS0), for which the thermal stability z-score in experiment [1] was 1.17; in experiment [2] (setting [3]) it was -0.109; in experiment [2] (arsenate co-treatment: none) it was -0.175.

As for TH1L|NELFCD, the thermal stability z-score is 0.0938 in experiment [1], -0.0628 in experiment [2] (setting [3]) and -0.0836 in experiment [2] (arsenate co-treatment: none).

In the case of THADA (UniProt Q6YHU6), the thermal stability z-score was -0.361 in experiment [1], -0.42 in experiment [2] (setting [3]) and -0.349 in experiment [2] (arsenate co-treatment: none).

In the case of THBS1 (UniProt P07996), the values for the thermal stability z-score in experiment [1], in experiment [2] (setting [3]) and in experiment [2] (arsenate co-treatment: none) were -0.825, -0.588 and -0.841, respectively.

For THEM4 (UniProt Q5T1C6), the thermal stability z-score in experiment [1] is -0.626; in experiment [2] (setting [3]), -0.175; in experiment [2] (arsenate co-treatment: none) it was -0.235.

THEM6 (UniProt Q8WUY1): the results for the thermal stability z-score in experiment [1], in experiment [2] (setting [3]) and in experiment [2] (arsenate co-treatment: none) were 0.723, 0.308 and 0.289, respectively.

As to THG1L (UniProt Q9NWX6), the figures for the thermal stability z-score in experiment [1], in experiment [2] (setting [3]) and in experiment [2] (arsenate co-treatment: none) were 0.463, 0.578 and 0.85, respectively.

Turning to THNSL1 (UniProt Q8IYQ7), the thermal stability z-score was 0.0365 in experiment [1], 0.202 in experiment [2] (setting [3]) and -0.188 in experiment [2] (arsenate co-treatment: none).

On to THOC1 (UniProt Q96FV9), for which the thermal stability z-score in experiment [1] was -0.258; in experiment [2] (setting [3]), 0.298; in experiment [2] (arsenate co-treatment: none) it was -0.0559.

With THOC2 (UniProt Q8NI27), the values for the thermal stability z-score in experiment [1], in experiment [2] (setting [3]) and in experiment [2] (arsenate co-treatment: none) were 0.273, -0.212 and -0.102, respectively.

For THOC3 (UniProt Q96J01), the values for the thermal stability z-score in experiment [1], in experiment [2] (setting [3]) and in experiment [2] (arsenate co-treatment: none) were -0.683, 0.252 and 0.058, respectively.

On to THOC5 (UniProt Q13769), for which the values for the thermal stability z-score in experiment [1], in experiment [2] (setting [3]) and in experiment [2] (arsenate co-treatment: none) were 0.536, 0.945 and 0.187, respectively.

Consider THOC6 (UniProt Q86W42), for which the thermal stability z-score in experiment [1] turned out to be 0.429; in experiment [2] (setting [3]) it was 0.337; in experiment [2] (arsenate co-treatment: none) it was 0.402.

In the case of THOC7 (UniProt Q6I9Y2), the thermal stability z-score in experiment [1] is -0.26; in experiment [2] (setting [3]), 0.192; in experiment [2] (arsenate co-treatment: none), 0.175.

For the target THOP1 (UniProt P52888), the thermal stability z-score was -0.915 in experiment [1], -0.0659 in experiment [2] (setting [3]) and -0.212 in experiment [2] (arsenate co-treatment: none).

For THRAP3 (UniProt Q9Y2W1), the results for the thermal stability z-score in experiment [1], in experiment [2] (setting [3]) and in experiment [2] (arsenate co-treatment: none) were -0.985, 1.84 and 0.438, respectively.

Take THTPA (UniProt Q9BU02): the thermal stability z-score in experiment [1] was 0.53; in experiment [2] (setting [3]) it was 0.32; in experiment [2] (arsenate co-treatment: none) it was -0.0368.

With THUMPD1 (UniProt Q9NXG2), the thermal stability z-score in experiment [1] was determined as 3.08; in experiment [2] (setting [3]), 0.166; in experiment [2] (arsenate co-treatment: none), 0.155.

Turning to THUMPD2 (UniProt Q9BTF0), the thermal stability z-score was 0.0998 in experiment [1], -0.2 in experiment [2] (setting [3]) and -0.425 in experiment [2] (arsenate co-treatment: none).

In the case of THUMPD3 (UniProt Q9BV44), the thermal stability z-score in experiment [1] is 0.37; in experiment [2] (setting [3]), 0.0954; in experiment [2] (arsenate co-treatment: none), -0.489.

Turning to THYN1 (UniProt Q9P016), the thermal stability z-score in experiment [1] was -0.603; in experiment [2] (setting [3]), 0.476; in experiment [2] (arsenate co-treatment: none), 0.00625.

As to TIA1 (UniProt P31483), the thermal stability z-score in experiment [1] is -1.08; in experiment [2] (setting [3]), -0.376; in experiment [2] (arsenate co-treatment: none) it was 0.000117.

Take TIAL1 (UniProt Q01085): the thermal stability z-score in experiment [1] was -1.23; in experiment [2] (setting [3]), -0.227; in experiment [2] (arsenate co-treatment: none), 0.0243.

As for TICAM1 (UniProt Q8IUC6), the thermal stability z-score is -0.325 in experiment [1], -0.187 in experiment [2] (setting [3]) and -0.204 in experiment [2] (arsenate co-treatment: none).

For TIFA (UniProt Q96CG3), the thermal stability z-score in experiment [1] was -0.879; in experiment [2] (setting [3]) it was -0.71; in experiment [2] (arsenate co-treatment: none), -0.0546.

For TIGAR (UniProt Q9NQ88), the thermal stability z-score in experiment [1] was 0.655; in experiment [2] (setting [3]) it was -1.91; in experiment [2] (arsenate co-treatment: none) it was 0.677.

For TIMELESS (UniProt Q9UNS1), the figures for the thermal stability z-score in experiment [1], in experiment [2] (setting [3]) and in experiment [2] (arsenate co-treatment: none) were -0.498, -0.244 and -0.0831, respectively.

Consider TIMM13 (UniProt Q9Y5L4), for which the results for the thermal stability z-score in experiment [1], in experiment [2] (setting [3]) and in experiment [2] (arsenate co-treatment: none) were -0.381, 1.99 and 1.56, respectively.

These data come from the supplement of paper PMC12463676, “Small-molecule dissolution of stress granules by redox modulation benefits ALS models” (Nature Chemical Biology, 2025).
